In patent US11155586B2, “Cystine knot scaffold platform” (Genentech, Inc., priority 2015, dated 2021):
Where two headings read alike, the source gives them in different places. Positions of bridges follow the written chain, without caps; N, C: chain ends. Residues, ends and D or L forms follow the SMILES beside them.

Key:
trypsin = experiment: Trypsin protease activity, peptide substrate cleavage assay; type: biochemical; details: FIG. 3
[1] = target: hVEGF-A mutants (Y21A, K48A, Q89A, F17A/M81A); experiment: SPR binding assay, hVEGF-A mutants; parameters: species or system human; kd: unit not given here
Experimental: Depending on the format of the assay either a streptavidin sensor (SA) or a dextran-coated (CM5) sensor was utilized as described below.
For use with the SA sensor, VEGF-A was first biotinylated (no more than 2 biotin/VEGF-A) by incubating the protein with EZ-link NHS-PEG4-Biotin (Pierce) in a 1:1.5 molar ratio respectively, in PBS for 2 hours on ice. Reaction was then quenched by addition of 10 molar excess of Glycine pH 8.0 and the sample was buffer exchanged into PBS using an Amicon 0.5 mL 3000 MWCO ultra-centrifugal filters (EMD Millipore). The biotinylation state of the protein was verified by LC-MS analysis. Biotinylated VEGF-A was then captured on the surface until a resonance unit (RU) signal of about ˜400. For immobilization of VEGF-A on CM5 sensor, the surface was first activated with a mixture of N-ethyl-N′-(3-dimethylaminopropyl)carbodiimide hydrochloride and N-hydroxysuccinimide (EDC/NHS) according to the supplier instructions. VEGF-A was then diluted into coupling buffer (0.1 M Acetate Buffer, pH 5.0) and injected until the signal reached about ˜400 RU followed by a wash with 1 M ethanolamine pH 8.0 to quench remaining activated sites.
Following the capture step, a series of the peptide concentrations were prepared in HBS-EP buffer with matching DMSO concentrations to 0.1% and injected at a flow rate of […]. The resulting sensorgrams were then analyzed using a 1:1 binding model to obtain kinetic data and affinities using Scrubber 2.0 (BioLogic Software).
The binding interface of VEGF_CKP9.54.90 on VEGF-A overlaps with that of the natural receptors and G6.31 antibody (FIGS. 7 and 8). […] However, K48A mutation enhanced the binding of VEGF_CKP9.54.90 by ˜2-3 fold, a behavior that is similar to that observed with the G6.31 antibody (Fuh et al. (2006) J. Biol. Chem. 281, 6625-6631).

hVEGF-A (8-109) = target: T1, hVEGF-A (8-109) (Homo sapiens, UniProt P15692); experiment: SPR binding assay (BIACORE 3000, 37° C.)
T1 sequence (P15692 34-135 isoform P15692-4): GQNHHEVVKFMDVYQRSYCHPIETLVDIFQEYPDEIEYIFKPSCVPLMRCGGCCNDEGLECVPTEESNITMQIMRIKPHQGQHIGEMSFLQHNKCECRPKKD
Outline: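 VEGF-A, biotinylated and captured on streptavidin sensor or amine-coupled to CM5 at pH 5.0, to about 400 RU. Peptide concentration series in HBS-EP with 0.1% DMSO injected at […]; kinetics and affinities from 1:1 binding model fits.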

hVEGF-A = target: T2, hVEGF-A (Homo sapiens, UniProt P15692); experiment: KDR-CHO VEGF assay to determine cellular IC50 (VEGF mediated Tyr phosphorylation of KDR); type: cell-based
T2 sequence (P15692 207-395): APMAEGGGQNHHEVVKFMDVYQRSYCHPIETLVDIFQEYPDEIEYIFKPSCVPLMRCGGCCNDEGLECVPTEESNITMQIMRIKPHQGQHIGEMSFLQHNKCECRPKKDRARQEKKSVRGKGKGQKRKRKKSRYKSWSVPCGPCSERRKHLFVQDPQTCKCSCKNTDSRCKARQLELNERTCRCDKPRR
Experimental: KDR-CHO cells (CHO cells stably transfected with gD tagged-KDR) were grown in cell growth medium (DMEM/Ham's F-12, 10% diafiltered FBS (GIBCO catalog no. 26400), 25 mM HEPES, 2 mM L-GLUTAMAX™). For VEGF stimulation assay, 5×10^4 cells/well were plated in 100 μl of cell plating medium (DMEM/Ham's F-12, 0.2% BSA, 0.25% diafiltered FBS, 25 mM HEPES, 2 mM L-GLUTAMAX™) in 96-well tissue culture plate and incubated at 37° C. overnight. The medium was replaced with 100 I1 of serum-free cell stimulation medium (DMEM/Ham's F-12, 0.5% BSA, 25 mM HEPES) and cells were incubated at 37° C. for 2 hr. One hour before stimulation, the medium was replaced with 50 I1 of serum-free cell stimulation medium. Concurrently, VEGF (50 ng/ml for hVEGF, 100 ng/ml for mVEGF and rVEGF) was pre-incubated with titrated amount of CKP or anti-VEGF in 50 μl of serum-free cell stimulation medium at 37° C. for 1 hour and added to the cells. The cells were stimulated for 15 min at 37 C and the medium is removed. The cells were lysed with 130 I1 of ice-cold cell lysis buffer (150 mM NaCl, 50 mM HEPES, 0.5% Triton-X 100, HALT protease and phosphatase inhibitor cocktail (ThermoFisher Scientific, Inc. catalog no. 78444), 5 mM EDTA). VEGF mediated Tyr phosphorylation of KDR was determined by ELISA-based assay. Briefly, MAXISORP™ 96 well plates (ThermoFisher Scientific, Inc. catalog no. 439454) were coated with 100 I1 of anti-gD antibody diluted in PBS (1 μg/ml) at 4° C. overnight and washed three times with washing buffer (PBS, 0.05% TWEEN®20, pH 7.4). The plates were blocked with 300 I1 of blocking buffer (PBS, 0.5% BSA) at room temperature for 1 hour followed by washing three times with washing buffer. The above KDR-CHO cell lysate (100 μl) was added to each well and incubated at room temperature for 2 hours. The plates were washed four times with washing buffer followed by incubation with 100 I1 of 0.5 μg/ml biotin-conjugated anti-phosphotyrosine (clone 4G10, Millipore catalog no. 16-103) in blocking buffer at room temperature for 2 hours. After washing four times, the plates were incubated with 100 I1 of HRP-conjugated streptavidin in blocking buffer at room temperature for 30 min. After washing four times, the plates were developed with 100 I1 of TMB substrate (BD Biosciences) at room temperature for 20-30 min and stopped by addition of 50 μl of H2SO4 solution. The optical density of each well was determined using a microplate reader set to 450 nm.

| Structure (SMILES) | inhibition of trypsin protease activity (trypsin) | Kd ([1]; hVEGF-A mutant K48A) | ka ([1]; hVEGF-A mutant K48A) | kd ([1]; hVEGF-A mutant K48A) | Kd ([1]; hVEGF-A mutant Q89A) | ka ([1]; hVEGF-A mutant Q89A) | kd ([1]; hVEGF-A mutant Q89A) | Kd ([1]; hVEGF-A mutant Y21A) | ka ([1]; hVEGF-A mutant Y21A) | kd ([1]; hVEGF-A mutant Y21A) | kd (hVEGF-A (8-109); hVEGF-A (8-109), Table 29) | kd (hVEGF-A (8-109); hVEGF-A WT) | kd (hVEGF-A (8-109); human 8-109, Table 30) | FOLD IMPROVEMENT RELATIVE TO VARIANT 9.54.90 (hVEGF-A; Table 36, from cellular IC50) | Kd (hVEGF-A (8-109); KD (nM), hVEGF-A WT) | Kd (hVEGF-A (8-109); KD (nM), human 8-109, Table 30) | IC50 (hVEGF-A; Cellular IC50, Table 28) | further results |
| --- | --- | --- | --- | --- | --- | --- | --- | --- | --- | --- | --- | --- | --- | --- | --- | --- | --- | --- |
| CC[C@H](C)[C@@H]1NC(=O)[C@H](CC(=O)O)NC(=O)[C@@H]2CCCN2C(=O)CNC(=O)[C@@H]2CSSC[C@H](NC(=O)[C@H](CC(=O)O)NC1=O)C(=O)N[C@@H](CC(C)C)C(=O)N[C@@H](C)C(=O)NCC(=O)N[C@H](C(=O)N[C@H](C(=O)N[C@H]1CSSC[C@@H](C(=O)NCC(=O)O)NC(=O)[C@H](CO)NC(=O)[C@H](CC(N)=O)NC(=O)[C@H](Cc3ccc(O)cc3)NC(=O)[C@H](Cc3c[nH]c4ccccc34)NC(=O)[C@H](Cc3c[nH]cn3)NC1=O)C(C)C)CSSC[C@H](NC(=O)CN)C(=O)N[C@@H](CC(=O)O)C(=O)N[C@@H](C(C)C)C(=O)N[C@@H](CCSC)C(=O)N[C@@H](CCC(N)=O)C(=O)N1CCC[C@H]1C(=O)N[C@@H](Cc1ccc(O)cc1)C(=O)N[C@@H](Cc1c[nH]c3ccccc13)C(=O)NCC(=O)N2 [VEGF_CKP9.63.12] (H-GCDVMQPYWGCGPDIDCLAGCVCHWYNSCG-OH; disulfide 2-21, 11-17, 23-29 (inferred); N-terminus and C-terminus assumed) | do not inhibit | 0.33 nM | 5.30 × 10^7 | 0.017 | 36.5 nM | 7.43 × 10^6 | 0.47 | 9.84 nM | 1.99 × 10^7 | 1.48 × 10^−1 | 0.10 | 0.0096 | 2.50 × 10^−2 | 0.74 | – | – | – | – |
| CC[C@H](C)[C@@H]1NC(=O)[C@H](CC(N)=O)NC(=O)[C@@H](NC(=O)CN)CSSC[C@@H](C(=O)N[C@H](C(=O)N[C@H]2CSSC[C@@H](C(=O)NCC(=O)O)NC(=O)[C@H](CO)NC(=O)[C@H](CCC(N)=O)NC(=O)[C@H](Cc3ccc(O)cc3)NC(=O)[C@H](Cc3ccc(O)cc3)NC(=O)[C@H](CCC(N)=O)NC2=O)C(C)C)NC(=O)CNC(=O)[C@H](C)NC(=O)[C@H](CC(C)C)NC(=O)[C@@H]2CSSC[C@H](NC(=O)CNC(=O)[C@H](Cc3c[nH]c4ccccc34)NC(=O)[C@H](Cc3ccccc3)NC(=O)[C@@H]3CCCN3C(=O)[C@H](CC(C)C)NC(=O)[C@H](CCSC)NC1=O)C(=O)NCC(=O)N[C@@H](CCCNC(=N)N)C(=O)N[C@@H](CC(=O)O)C(=O)N[C@@H](Cc1ccccc1)C(=O)N[C@@H](CCC(=O)O)C(=O)N2 [VEGF_CKP9.54.90] (H-GCNIMLPFWGCGRDFECLAGCVCQYYQSCG-OH; disulfide 2-21, 11-17, 23-29; N-terminus and C-terminus assumed) | do not inhibit | 0.19 nM | 6.04 × 10^7 | 0.0116 | 8.8 nM | 1.71 × 10^7 | 0.1458 | 3.5 nM | 3.72 × 10^7 | 0.1202 | – | 0.0300 | 4.05 × 10^−2 | 1 | 0.37 nM | 0.87 nM | 1.35 nM | binding to VEGF-A mutant F17A/M81A ([1]; F17A/M81A, relative to wild type VEGF-A): reduced binding; enhancement of binding by K48A mutation ([1]; K48A, relative to wild type VEGF-A): 2-3 fold; binding to VEGF-A mutant Q89A ([1]; Q89A, relative to wild type VEGF-A): reduced binding; binding to VEGF-A mutant Y21A ([1]; Y21A, relative to wild type VEGF-A): reduced binding; Kd (hVEGF-A (8-109); KD, Table 37, surface plasmon resonance, VEGF-A): 0.4 ± 0.08 nM; kd (hVEGF-A (8-109); Table 37, surface plasmon resonance, VEGF-A): 0.17; IC50 (hVEGF-A; Cellular IC50 (nM), Table 36, loop 3/loop 4 variants): 1.35 nM; IC50 (hVEGF-A; Table 38, F8Y and/or unnatural amino acid variants, read-out: Cellular IC50): 1.35 nM; FOLD IMPROVEMENT RELATIVE TO VARIANT 9.54.90 (hVEGF-A; Table 38, from cellular IC50): 1 |
| CSCC[C@@H]1NC(=O)[C@H](C(C)C)NC(=O)[C@H](CC(=O)O)NC(=O)[C@@H](NC(=O)CN)CSSC[C@@H](C(=O)N[C@H](C(=O)N[C@H]2CSSC[C@@H](C(=O)NCC(=O)O)NC(=O)[C@H](CO)NC(=O)[C@H](CC(N)=O)NC(=O)[C@H](Cc3ccc(O)cc3)NC(=O)[C@H](Cc3c[nH]c4ccccc34)NC(=O)[C@H](Cc3c[nH]cn3)NC2=O)C(C)C)NC(=O)CNC(=O)[C@H](C)NC(=O)[C@H](CC(C)C)NC(=O)[C@@H]2CSSC[C@H](NC(=O)CNC(=O)[C@H](Cc3c[nH]c4ccccc34)NC(=O)[C@H](Cc3ccc(O)cc3)NC(=O)[C@@H]3CCCN3C(=O)[C@H](CCC(N)=O)NC1=O)C(=O)N[C@@H](CCCCN)C(=O)N[C@@H](CCC(N)=O)C(=O)N[C@@H](CC(=O)O)C(=O)N[C@@H](CO)C(=O)N[C@@H](CC(=O)O)C(=O)N2 [VEGF_CKP9.63] (H-GCDVMQPYWGCKQDSDCLAGCVCHWYNSCG-OH; disulfide 2-21, 11-17, 23-29 (inferred); N-terminus and C-terminus assumed) | – | 28.4 nM | 5.72 × 10^5 | 0.02 | 2000 nM | 2.66 × 10^5 | 0.51 | 585 nM | 7.52 × 10^5 | 0.4814 | 1.6 | 0.1624 | 1.81 × 10^−1 | – | 100 nM | 281 nM | 140 nM | Kd (hVEGF-A (8-109); KD, hVEGF-A (8-109), Table 29): 100 nM; ka (hVEGF-A (8-109); human 8-109, Table 30): 6.62 × 10^5; IC50 (hVEGF-A; Cellular IC50, Table 25): 140 nM; IC50 (hVEGF-A; IC50 against VEGF-A in in vitro and cellular assays, Table 25, improved potency compared to parent VEGF-CKP9): 100 to 200 nM |
